Source: patent US20230243016A1, “APPLICATIONS OF CARBOXYLIC COMPOUND SERVING AS EXTRACTING AGENT AND METAL ION EXTRACTION METHOD” (BOTREE CYCLING SCI & TECH CO., LTD., priority 2020, published 2023)
Values belong to the compound of their own block, whether it stands above or below them.

How the values were obtained:
[1] = Separation coefficients between non-ferrous metal ions (Example 1, Comparative Example 3); type: physicochemical
Method: (§1) In the embodiments of the present application, after extraction, a metal ion concentration of the aqueous phase is analyzed using the inductively coupled plasma optical emission spectroscopy (ICP-OES), and a metal ion concentration of the organic phase is calculated by the difference subtraction method.
(§2) Extractant 191 was dissolved in dodecane to prepare a 0.2 mol/L organic phase, and 0.01 mol/L sulfate solutions of Cu^2+, Zn^2+, Cd^2+, Ni^2+, Co^2+, Mn^2+, Ca^2+, Mg^2+, and Li^+ were prepared as aqueous phases, respectively.
This comparative example differs from Example 1 in that Extractant 191 was replaced with extractant Versatic 10 (commercially available, with an acid content of 98%).

[2] = Extraction for a magnesium-enriched nickel chloride solution (Example 5); type: physicochemical; settings: 0.31 mol/L in dodecane; chloride solution 1.33 g/L Ni, 4 g/L Mg; O/A 1:1
Method: as §1
Extractant 191 was dissolved in dodecane to prepare a 0.31 mol/L organic phase, and an aqueous phase was the magnesium-enriched nickel chloride solution containing 1.33 g/L Ni and 4 g/L Mg.

[3] = Extraction performance for non-ferrous metal ions (Example 1); type: physicochemical; settings: 0.2 mol/L in dodecane, 0.01 mol/L sulfate solution, O/A 1:1
Method: as §1, §2

[4] = Back extraction of organic phase loaded with rare earth ions (Example 8); type: physicochemical; settings: organic phase loaded with 0.10 mol/L Lu; 1.0 mol/L hydrochloric acid; O/A 1:1
[5] = Separation coefficients between trivalent ions (Example 2); type: physicochemical
Method: as §1
(§3) The Extractant 195 was dissolved in toluene to prepare a 0.1 mol/L organic phase, and 0.005 mol/L chloride solutions of Fe^3+, Ga^3+, In^3+, Sc^3+, Cr^3+, Al^3+, Lu^3+, Ho^3+, and Gd^3+ were prepared as aqueous phases, respectively.

[6] = Extraction performance for trivalent ions (Example 2); type: physicochemical; settings: 0.1 mol/L in toluene, 0.005 mol/L chloride solution, O/A 1:1
Method: as §1, §3

[7] = Extraction from a battery material solution (Example 3, Comparative Example 4); type: physicochemical; settings: 0.6 mol/L in Escaid 110
Method: as §1
Extractant 196 was dissolved in Escaid 110 to prepared a 0.6 mol/L organic phase, and the battery material solution contained Ni (46.20 g/L), Co (20.56 g/L), Mn (23.93 g/L), Ca (0.43 g/L), and Mg (0.21 g/L).
The extractant was dissolved in Escaid 110 and prepared to a 0.6 mol/L organic phase, and a battery material solution contained Ni (46.20 g/L), Co (20.56 g/L), Mn (23.93 g/L), Ca (0.43 g/L), and Mg (0.21 g/L). […] By observing the experimental phenomenon where the extractant exists in the battery material solution system, it can be seen that when the aqueous phase equilibrium pH is greater than 5.33, the phase separation phenomenon becomes worse, the aqueous phase is turbid and viscous, and the organic phase gradually becomes colorless; it can be seen from FIG. 7 that when the aqueous phase equilibrium pH is greater than 5.33, the extraction capability of the extractant for metal ions decreases.

[8] = Saturation capacity test for Ni^2+ (Example 7); type: physicochemical; settings: 0.6 mol/L in dodecane, saponified to 60%; repeated contact with 50 g/L NiSO4
Description: The organic phase was back-extracted and the saturation capacity of Extractant 196 for Ni^2+ was obtained to be about 16.9 g/L.

[9] = Extraction performance for rare earth ions, mixed chloride solution (Example 4); type: physicochemical; settings: 2 mol/L in dodecane, O/A 1:1, ammonia saponification
Method: as §1

[10] = organic phase loaded with Lu; 4 mol/L hydrochloric acid (general practice); cited from earlier work
[11] = pH½, Example 1 / Comparative Example 3 system
[12] = aqueous phase equilibrium pH greater than 5.33, O/A 8:1

Separation coefficient Cd^2+ / Ca^2+ ([1]; Cd^2+, row Ca^2+, Example 1 system): 75.86 | Separation coefficient Cd^2+ / Co^2+ ([1]; Cd^2+, row Co^2+, Example 1 system): 17.38 | Separation coefficient Cd^2+ / Mg^2+ ([1]; Cd^2+, row Mg^2+, Example 1 system): 263.03 | Separation coefficient Cd^2+ / Mn^2+ ([1]; Cd^2+, row Mn^2+, Example 1 system): 18.20 | Separation coefficient Cd^2+ / Ni^2+ ([1]; Cd^2+, row Ni^2+, Example 1 system): 8.71 | Separation coefficient Co^2+ / Ca^2+ ([1]; Co^2+, row Ca^2+, Example 1 system): 4.37 | Separation coefficient Co^2+ / Mg^2+ ([1]; Co^2+, row Mg^2+, Example 1 system): 15.14 | Separation coefficient Co^2+ / Mn^2+ ([1]; Co^2+, row Mn^2+, Example 1 system): 1.05 | Separation coefficients between various ions (all pairs) ([1]; Cu^2+, Zn^2+, Cd^2+, Ni^2+, Co^2+, Mn^2+, Ca^2+, Mg^2+, Li^+): greater than 1 | Separation coefficient Cu^2+ / Ca^2+ ([1]; Cu^2+, row Ca^2+, Example 1 system): 457088.19 | Separation coefficient Cu^2+ / Cd^2+ ([1]; Cu^2+, row Cd^2+, Example 1 system): 6025.60 | Separation coefficient Cu^2+ / Co^2+ ([1]; Cu^2+, row Co^2+, Example 1 system): 104712.85 | Separation coefficient Cu^2+ / Mg^2+ ([1]; Cu^2+, row Mg^2+, Example 1 system): 1584893.19 | Separation coefficient Cu^2+ / Mn^2+ ([1]; Cu^2+, row Mn^2+, Example 1 system): 109647.82 | Separation coefficient Cu^2+ / Ni^2+ ([1]; Cu^2+, row Ni^2+, Example 1 system): 52480.75 | Separation coefficient Cu^2+ / Zn^2+ ([1]; Cu^2+, row Zn^2+, Example 1 system): 691.83 | Separation coefficient Ni^2+ / Ca^2+ ([1]; Ni^2+, row Ca^2+, Example 1 system): 8.71 | Separation coefficient Ni^2+ / Co^2+ ([1]; Ni^2+, row Co^2+, Example 1 system): 2.00 | Separation coefficient Ni^2+ / Mg^2+ ([1]; Ni^2+, row Mg^2+, Example 1 system): 30.20 | Separation coefficient Ni^2+ / Mn^2+ ([1]; Ni^2+, row Mn^2+, Example 1 system): 2.09 | Separation coefficient Zn^2+ / Ca^2+ ([1]; Zn^2+, row Ca^2+, Example 1 system): 660.69 | Separation coefficient Zn^2+ / Cd^2+ ([1]; Zn^2+, row Cd^2+, Example 1 system): 8.71 | Separation coefficient Zn^2+ / Co^2+ ([1]; Zn^2+, row Co^2+, Example 1 system): 151.36 | Separation coefficient Zn^2+ / Mg^2+ ([1]; Zn^2+, row Mg^2+, Example 1 system): 2290.87 | Separation coefficient Zn^2+ / Mn^2+ ([1]; Zn^2+, row Mn^2+, Example 1 system): 158.49 | Separation coefficient Zn^2+ / Ni^2+ ([1]; Zn^2+, row Ni^2+, Example 1 system): 75.86 | Separation coefficient Ca^2+ / Mg^2+ ([1]; column Ca^2+, row Mg^2+, Example 1 system): 3.47 | Separation coefficient Mn^2+ / Ca^2+ ([1]; column Mn^2+, row Ca^2+, Example 1 system): 4.17 | Separation coefficient Mn^2+ / Mg^2+ ([1]; column Mn^2+, row Mg^2+, Example 1 system): 14.45 | βNi/Ca (separation coefficient) [1, 11]: 8.71 | βNi/Co (separation coefficient) [1, 11]: 2.00 | βNi/Mg (separation coefficient) [1, 11]: 30.2 | βNi/Mn (separation coefficient) [1, 11]: 2.09 | βNi/Zn (separation coefficient) [1, 11]: 75.86 | Separation coefficients higher compared with Versatic 10 ([1]; same test condition): 20-30% | Separation coefficient between nickel and magnesium [2]: about 833 | Extraction pH½ for Ca^2+ [3]: 7.32 | Extraction pH½ for Cd^2+ [3]: 6.38 | Extraction pH½ for Co^2+ [3]: 7.00 | Extraction pH½ for Li^+ [3]: 9.75 | Extraction pH½ for Mg^2+ [3]: 7.59 | Extraction pH½ for Mn^2+ [3]: 7.01 | Extraction pH½ for Ni^2+ [3]: 6.85 | Extraction pH½ for Zn^2+ [3]: 5.91 | Extraction pH½ for Cu^2+ ([3]; pH by 6 mol/L NaOH saponification): 4.49
Compound: CCCCCCCCCCC(CCCCCC)C(=O)O (stereo not drawn) [Extractant 191]
Extraction order of ions (FIG. 1) ([1]; E%-pH curves, Example 1): extracts nickel and cobalt ions in order before calcium and magnesium | Extraction order of nickel and magnesium (FIG. 6) [2]: extracts nickel in order before magnesium

Back extraction rate [4]: greater than 99%
Compound: CCCCCCCCC(CC)C(=O)O (stereo not drawn) [Extractant 192]

Separation coefficients between various ions (all pairs) ([5]; Fe^3+, Ga^3+, In^3+, Sc^3+, Cr^3+, Al^3+, Lu^3+, Ho^3+, Gd^3+): greater than 1 | Separation coefficient Fe^3+ / Al^3+ ([5]; Fe^3+, row Al^3+, Example 2 system): 95499.26 | Separation coefficient Fe^3+ / Cr^3+ ([5]; Fe^3+, row Cr^3+, Example 2 system): 1862.09 | Separation coefficient Fe^3+ / Ga^3+ ([5]; Fe^3+, row Ga^3+, Example 2 system): 95.50 | Separation coefficient Fe^3+ / In^3+ ([5]; Fe^3+, row In^3+, Example 2 system): 177.83 | Separation coefficient Fe^3+ / Sc^3+ ([5]; Fe^3+, row Sc^3+, Example 2 system): 1230.27 | Separation coefficient Ga^3+ / Al^3+ ([5]; Ga^3+, row Al^3+, Example 2 system): 1000.00 | Separation coefficient Ga^3+ / Cr^3+ ([5]; Ga^3+, row Cr^3+, Example 2 system): 19.50 | Separation coefficient Ga^3+ / In^3+ ([5]; Ga^3+, row In^3+, Example 2 system): 1.86 | Separation coefficient Ga^3+ / Sc^3+ ([5]; Ga^3+, row Sc^3+, Example 2 system): 12.88 | Separation coefficient In^3+ / Al^3+ ([5]; In^3+, row Al^3+, Example 2 system): 537.03 | Separation coefficient In^3+ / Cr^3+ ([5]; In^3+, row Cr^3+, Example 2 system): 10.47 | Separation coefficient In^3+ / Sc^3+ ([5]; In^3+, row Sc^3+, Example 2 system): 6.92 | Separation coefficient Cr^3+ / Al^3+ ([5]; column Cr^3+, row Al^3+, Example 2 system): 51.29 | Separation coefficient Ho^3+ / Gd^3+ ([5]; column Ho^3+, row Gd^3+, Example 2 system): 3.98 | Separation coefficient Lu^3+ / Gd^3+ ([5]; column Lu^3+, row Gd^3+, Example 2 system): 15.85 | Separation coefficient Lu^3+ / Ho^3+ ([5]; column Lu^3+, row Ho^3+, Example 2 system): 3.98 | Separation coefficient Sc^3+ / Al^3+ ([5]; column Sc^3+, row Al^3+, Example 2 system): 77.62 | Separation coefficient Sc^3+ / Cr^3+ ([5]; column Sc^3+, row Cr^3+, Example 2 system): 1.51 | Extraction pH½ for Al^3+ [6]: 3.60 | Extraction pH½ for Cr^3+ [6]: 3.03 | Extraction pH½ for Ga^3+ [6]: 2.60 | Extraction pH½ for Gd^3+ [6]: 5.46 | Extraction pH½ for Ho^3+ [6]: 5.26 | Extraction pH½ for In^3+ [6]: 2.69 | Extraction pH½ for Lu^3+ [6]: 5.06 | Extraction pH½ for Sc^3+ [6]: 2.97 | Extraction pH½ for Fe^3+ ([6]; pH by 8 mol/L NaOH saponification): 1.94
Compound: CCCCCCCC(CCCCC)C(=O)O (stereo not drawn) [Extractant 195]

Extraction of Ni, Co and Mn from the battery material solution ([7]; O/A 8:1, pH greater than 6.8): almost completely extracted | Extraction rate of Ca and Mg from the battery material solution ([7]; O/A 8:1, pH greater than 6.8): low extraction rate | Extraction of Ni, Co and Mn from the battery material solution ([7]; pH less than 7.2, O/A 5:1 and 8:1): selectively extracted | Saturation capacity for Ni^2+ [8]: about 16.9 g/L
Compound: CCCCCCCCC(CCCCCC)C(=O)O (stereo not drawn) [Extractant 196]
Extraction ability for rare earth ions (FIG. 5) [9]: gradually decreases from heavy rare earths to light rare earths

Compound: CCCCC(CC)COP(=O)(O)CC(CC)CCCC (stereo not drawn) [Extractant P507]
Primary back extraction rate [10]: about 80%

Extraction capability for metal ions (FIG. 7) [7, 12]: decreases | Phase separation phenomenon [7, 12]: becomes worse
Compound: CCCCCCCCCCCCCCCCCC(=O)O [stearic acid, reference compound]
